According to the NIST ThermoML archive (doi:10.1021/acs.jced.8b00547):

Legend:
[1] = xn = mol fraction of the nth substance listed; details: 101 kPa, Liquid; for speed of sound: Single path-length method; for mass density: Vibrating tube method
[2] = refractive index (Na D-line) (dimensionless); xn = mol fraction of the nth substance listed; details: 101 kPa, Liquid, Standard Abbe refractometry

CCCC(C)=O [pentan-2-one] + CC(C)O
Details	mass density, [1] [kg/m3]	refractive index, [2]	speed of sound, [1] [m/s]
298.15 K, x1 = 0.0978	782.98	1.3767	1146.5
298.15 K, x1 = 0.2344	785.78	1.3786	1157.5
298.15 K, x1 = 0.3338	787.81	1.37996	1165.5
298.15 K, x1 = 0.4126	789.5	1.38098	1171.7
298.15 K, x1 = 0.4972	791.25	1.38207	1178.4
298.15 K, x1 = 0.6036	793.49	1.3834	1186.6
298.15 K, x1 = 0.7125	795.82	1.38472	1195
298.15 K, x1 = 0.8043	797.8	1.3858	1202
298.15 K, x1 = 0.9009	799.87	1.3869	1209.1
298.15 K, x1 = 1	802.09	1.38782	1216
308.15 K, x1 = 0.0978	774.13	1.3723	1110.6
308.15 K, x1 = 0.2344	776.72	1.37412	1120.8
308.15 K, x1 = 0.3338	778.65	1.3754	1128.1
308.15 K, x1 = 0.4126	780.23	1.37637	1133.8
308.15 K, x1 = 0.4972	781.85	1.37741	1139.9
308.15 K, x1 = 0.6036	783.93	1.37867	1147.5
308.15 K, x1 = 0.7125	786.12	1.37993	1155.2
308.15 K, x1 = 0.8043	788.05	1.38098	1161.6
308.15 K, x1 = 0.9009	790.07	1.382	1168.2
308.15 K, x1 = 1	792.32	1.38284	1174.4
318.15 K, x1 = 0.0978	764.87	1.3677	1074.9
318.15 K, x1 = 0.2344	767.32	1.36948	1084.2
318.15 K, x1 = 0.3338	769.16	1.37072	1090.9
318.15 K, x1 = 0.4126	770.69	1.37167	1096.1
318.15 K, x1 = 0.4972	772.19	1.37268	1101.7
318.15 K, x1 = 0.6036	774.18	1.3739	1108.7
318.15 K, x1 = 0.7125	776.29	1.37511	1115.7
318.15 K, x1 = 0.8043	778.16	1.3761	1121.5
318.15 K, x1 = 0.9009	780.17	1.37708	1127.6
318.15 K, x1 = 1	782.44	1.37782	1133.3
328.15 K, x1 = 0.0978	755.34	1.36295	1039
328.15 K, x1 = 0.2344	757.63	1.36471	1047.7
328.15 K, x1 = 0.3338	759.42	1.36591	1054
328.15 K, x1 = 0.4126	760.87	1.36686	1058.8
328.15 K, x1 = 0.4972	762.28	1.36785	1064.1
328.15 K, x1 = 0.6036	764.21	1.36905	1070.6
328.15 K, x1 = 0.7125	766.2	1.37023	1077.2
328.15 K, x1 = 0.8043	768.09	1.3712	1082.6
328.15 K, x1 = 0.9009	770.12	1.37215	1088.3
328.15 K, x1 = 1	772.43	1.3728	1093.6
338.15 K, x1 = 0.0978	744.73	1.3579	1003.3
338.15 K, x1 = 0.2344	746.99	1.35966	1011.5
338.15 K, x1 = 0.3338	748.79	1.36085	1017.3
338.15 K, x1 = 0.4126	750.28	1.36181	1021.8
338.15 K, x1 = 0.4972	751.71	1.3628	1026.7
338.15 K, x1 = 0.6036	753.67	1.36398	1032.7
338.15 K, x1 = 0.7125	755.74	1.36515	1038.8
338.15 K, x1 = 0.8043	757.71	1.36612	1043.8
338.15 K, x1 = 0.9009	759.83	1.36705	1049
338.15 K, x1 = 1	762.27	1.36764	1053.8
